Experimental data from ChEMBL document CHEMBL3994642, “Design, synthesis and biological evaluation of 2-(4-phenylthiazol-2-yl) isoindoline-1,3-dione derivatives as anti-prostate cancer agents” (Bioorg Med Chem Lett, 2017).
Calls of active or inactive are those of the source. The rule behind the calls is not given here.

Assays:
[1] = system: Androgen receptor (Homo sapiens), P10275 [T878A]; assay: Antagonist activity at AR T877A mutant in human LNCAP cells assessed as inhibition of DHT-induced TMPRSS2 mRNA level at 1 uM after 24 hrs by SYBR Green dye based qPCR method; assay type: cell-based
Chain of Androgen receptor (Homo sapiens), P10275 [T878A] (P10275 whole entry T878A): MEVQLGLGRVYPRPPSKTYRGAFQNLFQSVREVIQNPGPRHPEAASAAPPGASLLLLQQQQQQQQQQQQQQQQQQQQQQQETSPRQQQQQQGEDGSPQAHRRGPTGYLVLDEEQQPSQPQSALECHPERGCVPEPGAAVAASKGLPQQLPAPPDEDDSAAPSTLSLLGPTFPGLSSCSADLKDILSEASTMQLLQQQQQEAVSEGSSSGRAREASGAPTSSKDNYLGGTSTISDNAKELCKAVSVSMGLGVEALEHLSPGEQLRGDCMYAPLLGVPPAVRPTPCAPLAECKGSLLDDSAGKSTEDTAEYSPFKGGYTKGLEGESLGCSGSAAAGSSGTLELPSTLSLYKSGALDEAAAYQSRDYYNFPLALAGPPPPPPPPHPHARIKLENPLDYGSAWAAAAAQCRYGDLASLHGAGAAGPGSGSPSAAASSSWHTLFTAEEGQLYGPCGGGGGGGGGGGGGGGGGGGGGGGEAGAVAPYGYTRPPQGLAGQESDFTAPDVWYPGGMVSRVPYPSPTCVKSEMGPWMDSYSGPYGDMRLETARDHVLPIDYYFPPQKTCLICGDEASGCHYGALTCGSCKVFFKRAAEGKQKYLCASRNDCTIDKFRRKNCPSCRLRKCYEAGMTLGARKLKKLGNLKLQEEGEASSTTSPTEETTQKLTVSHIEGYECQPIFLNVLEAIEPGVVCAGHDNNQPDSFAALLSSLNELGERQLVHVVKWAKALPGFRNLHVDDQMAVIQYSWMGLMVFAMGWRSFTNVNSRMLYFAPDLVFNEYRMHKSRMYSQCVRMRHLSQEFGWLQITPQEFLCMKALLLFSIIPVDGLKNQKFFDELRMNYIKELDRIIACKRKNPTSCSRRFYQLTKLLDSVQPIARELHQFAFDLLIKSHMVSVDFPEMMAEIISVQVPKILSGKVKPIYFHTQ

[2] = system: Androgen receptor (Homo sapiens), P10275 [T878A]; assay: Antagonist activity at AR T877A mutant in human LNCAP cells assessed as inhibition of DHT-induced Cyclin D1 mRNA level at 1 uM after 24 hrs by SYBR Green dye based qPCR method; assay type: cell-based
[3] = system: Androgen receptor (Homo sapiens), P10275 [T878A]; assay: Antagonist activity at AR T877A mutant in human LNCAP cells assessed as inhibition of DHT-induced PSA mRNA level at 1 uM after 24 hrs by SYBR Green dye based qPCR method; assay type: cell-based
[4] = biological target: T1, Estrogen receptor (Homo sapiens) (UniProt P03372); assay: Activity at ER in human LNCAP cells assessed as inhibition of pS2 mRNA level at 5 uM after 24 hrs by SYBR Green dye based qPCR method; assay type: cell-based
T1 sequence (whole entry): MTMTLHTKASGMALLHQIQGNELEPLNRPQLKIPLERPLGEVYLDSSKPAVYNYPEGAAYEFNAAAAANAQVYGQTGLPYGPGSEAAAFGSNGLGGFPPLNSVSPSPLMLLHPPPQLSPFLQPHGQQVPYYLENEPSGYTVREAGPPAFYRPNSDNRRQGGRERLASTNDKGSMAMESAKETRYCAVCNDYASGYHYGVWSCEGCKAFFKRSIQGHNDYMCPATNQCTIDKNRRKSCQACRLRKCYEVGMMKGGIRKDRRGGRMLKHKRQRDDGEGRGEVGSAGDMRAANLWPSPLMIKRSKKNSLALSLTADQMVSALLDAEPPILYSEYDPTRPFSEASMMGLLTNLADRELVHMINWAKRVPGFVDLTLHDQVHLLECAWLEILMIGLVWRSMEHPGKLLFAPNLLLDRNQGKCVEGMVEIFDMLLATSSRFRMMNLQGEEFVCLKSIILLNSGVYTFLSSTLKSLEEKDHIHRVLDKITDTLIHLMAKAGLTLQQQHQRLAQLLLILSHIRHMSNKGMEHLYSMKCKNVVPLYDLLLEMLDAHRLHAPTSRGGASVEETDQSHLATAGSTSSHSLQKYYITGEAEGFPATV

[5] = system: Androgen receptor (Homo sapiens), P10275 [T878A]; assay: Potency index, ratio of bicalutamide IC50 to compound IC50 for AR T877A mutant in human LNCAP cells assessed as inhibition of DHT-induced proliferation; assay type: cell-based
[6] = system: Androgen receptor (Homo sapiens), P10275 [T878A]; assay: Potency index, ratio of R-bicalutamide IC50 to compound IC50 for AR T877A mutant in human LNCAP cells assessed as inhibition of DHT-induced proliferation; assay type: cell-based
[7] = Selectivity ratio of IC50 for AR negative human PC3 cells to IC50 for AR T877A mutant in human LNCAP cells
[8] = Selectivity index, ratio of IC50 for mouse 3T3 cells to IC50 for AR T877A mutant in human LNCAP cells; assay type: functional
[9] = system: Androgen receptor (Homo sapiens), P10275 [T878A]; assay: Antagonist activity at AR T877A mutant in human LNCAP cells assessed as inhibition of DHT-induced c-Myc mRNA level at 1 uM after 24 hrs by SYBR Green dye based qPCR method; assay type: cell-based
PC-3 = assay: Antiproliferative activity against AR negative human PC3 cells after 48 hrs by MTT assay; assay type: functional, cell-based; settings: PC-3, 48 h

N#Cc1ccc(-c2csc(N3C(=O)c4ccc(F)cc4C3=O)n2)cc1
inhibition [1]: Active | inhibition [2]: Active | inhibition [3]: Active | inhibition [4]: inactive | Ratio IC50 [5]: 7.4 | Ratio IC50 [6]: 4.6 | Ratio IC50 [7]: 7.23 | Ratio IC50 [8]: 7.09 | inhibition [9]: Active | IC50 (PC-3): 43.1 µM

Cc1ccc(-c2csc(N3C(=O)c4ccc(F)cc4C3=O)n2)cc1
Ratio IC50 [7]: 1.71 | Ratio IC50 [8]: 1.51 | IC50 (PC-3): 44.4 µM

O=C1c2ccccc2C(=O)N1c1nc(-c2ccccc2)cs1
Ratio IC50 [7]: 1.19 | Ratio IC50 [8]: 1.26 | IC50 (PC-3): 43.9 µM

C[C@](O)(CS(=O)(=O)c1ccc(F)cc1)C(=O)Nc1ccc(C#N)c(C(F)(F)F)c1 [(R)-BICALUTAMIDE]
IC50 (PC-3): 59.8 µM

O=C1c2ccccc2C(=O)N1c1nc(-c2ccc([N+](=O)[O-])cc2)cs1
Ratio IC50 [7]: 3.17 | Ratio IC50 [8]: 3.15 | IC50 (PC-3): 41.8 µM

Cc1ccc(-c2csc(N3C(=O)c4ccccc4C3=O)n2)cc1
Ratio IC50 [7]: 1.32 | Ratio IC50 [8]: 1.73 | IC50 (PC-3): 38.4 µM

O=C1c2ccccc2C(=O)N1c1nc(-c2ccc(Cl)cc2)cs1
Ratio IC50 [7]: 1.71 | Ratio IC50 [8]: 1.91 | IC50 (PC-3): 44.9 µM

N#Cc1ccc(-c2csc(N3C(=O)c4ccccc4C3=O)n2)cc1
Ratio IC50 [7]: 3.67 | Ratio IC50 [8]: 3.57 | IC50 (PC-3): 40.3 µM

O=C1c2ccccc2C(=O)N1c1nc(-c2ccc(F)cc2)cs1
Ratio IC50 [7]: 1.3 | Ratio IC50 [8]: 1.36 | IC50 (PC-3): 37.2 µM

COc1ccc(-c2csc(N3C(=O)c4ccc(F)cc4C3=O)n2)cc1
Ratio IC50 [7]: 5.05 | Ratio IC50 [8]: 5.04 | IC50 (PC-3): 41.3 µM

CC(O)(CS(=O)(=O)c1ccc(F)cc1)C(=O)Nc1ccc(C#N)c(C(F)(F)F)c1 (stereo unspecified) [BICALUTAMIDE]
IC50 (PC-3): 60.7 µM

O=C1c2ccc(F)cc2C(=O)N1c1nc(-c2ccc(Cl)cc2)cs1
Ratio IC50 [7]: 1.35 | Ratio IC50 [8]: 1.59 | IC50 (PC-3): 38 µM

O=C1c2ccc(F)cc2C(=O)N1c1nc(-c2ccc([N+](=O)[O-])cc2)cs1
Ratio IC50 [7]: 5.12 | Ratio IC50 [8]: 4.69 | IC50 (PC-3): 39.9 µM

COc1ccc(-c2csc(N3C(=O)c4ccccc4C3=O)n2)cc1
Ratio IC50 [7]: 3.14 | Ratio IC50 [8]: 3.29 | IC50 (PC-3): 42.9 µM

O=C1c2ccc(F)cc2C(=O)N1c1nc(-c2ccc(F)cc2)cs1
Ratio IC50 [7]: 1.8 | Ratio IC50 [8]: 2.04 | IC50 (PC-3): 39.5 µM

O=C1c2ccc(F)cc2C(=O)N1c1nc(-c2ccccc2)cs1
Ratio IC50 [7]: 1.17 | Ratio IC50 [8]: 1.9 | IC50 (PC-3): 40.2 µM
